Measured values as given in US20250381180A1, “METHODS OF TREATING OR PREVENTING OVERACTIVE BLADDER SYNDROME” (Purdue Pharma L.P., priority 2022, published 2025).

Columns and labels:
conscious BOO rats = experiment: Cystometric parameters in conscious bladder outlet obstruction (BOO) rats; assay type: in vivo, rat
Experimental: Test substance effects were compared to those of the reference substance, mirabegron, marketed for overactive bladder.
• At W-6, a partial ligature of the urethra was performed. • At W-6, during 3 consecutive days, rats were treated daily with gentamycin and Ketofen® The bladder was emptied manually once a day. • From W-6 to W-1 animals were monitored and weighed once per week. • At W0 (D-2), catheters were implanted under isoflurane anesthesia. • At D0, cystometry was performed.
Appropriate amount of Cpd (IA) was weighed and dissolved in vehicle to obtain the dosing solution with the target concentration of 3 mg/mL (as free base). […]
[…] Mirabegron (from Kemprotec) was prepared fresh on the day of administration at a final concentration of 2 mg/mL (free base form). Appropriate mass of mirabegron was weighed and dissolved in vehicle (0.5% MC) at room temperature.

[1] = Urine concentrations in humans after a single oral dose; assay type: in vivo, human; conditions: LLOQ 229 nM
[2] = 3 mg/kg i.v., 0-90 min entire period
[3] = 3 mg/kg i.v., 60-90 min interval period
[4] = i.g., 60-90 min interval period

O=C(O)c1nc2ccccc2n([C@H]2C[C@H]3CCC[C@@H](C2)N3C2CC3CCCC(C3)C2)c1=O (some centres unmarked) [Cpd (IA)]
AM (mmHg or % variation), effect versus vehicle (conscious BOO rats; [2]): not significantly modified
AM, effect versus basal (conscious BOO rats; [2]): did not significantly modify
BC expressed in % variation from basal, effect versus vehicle (conscious BOO rats; [2]): significantly decreased
BC expressed in mL, effect versus vehicle (conscious BOO rats; [2]): no significant difference
NVC amplitude (mmHg and % variation), effect versus vehicle (conscious BOO rats; [2]): not significantly modified
NVC amplitude, effect versus basal (conscious BOO rats; [2]): did not modify
NVC frequency (NVC/min or % variation), effect versus vehicle (conscious BOO rats; [2]): not significantly modified
NVC frequency, effect versus basal (conscious BOO rats; [2]): did not affect
ThP expressed in mmHg, effect versus vehicle (conscious BOO rats; [2]): not significantly modified
ThP, effect versus basal (conscious BOO rats; [2]): no significant effect
ThP expressed in % variation from basal, effect versus vehicle (conscious BOO rats; 3 mg/kg i.v., 0-90 min entire period, p=0.0504): decreased after Cpd (IA) treatment, the p value was close to the significance
AM (mmHg or % variation), effect versus vehicle (conscious BOO rats; [3]): no effect
AM, effect versus basal (conscious BOO rats; [3]): did not significantly modify
BC (mL and % variation), effect versus vehicle (conscious BOO rats; [3]): no significant difference
NVC amplitude (mmHg and % variation), effect versus vehicle (conscious BOO rats; [3]): not significantly modified
NVC amplitude, effect versus basal (conscious BOO rats; [3]): without any effect
NVC frequency (NVC/min or % variation), effect versus vehicle (conscious BOO rats; [3]): unaffected
NVC frequency, effect versus basal (conscious BOO rats; [3]): no significant effect
ThP expressed in % variation from basal, effect versus vehicle (conscious BOO rats; [3]): significantly decreased
ThP expressed in mmHg, effect versus vehicle (conscious BOO rats; [3]): not significantly modified
ThP, effect versus basal (conscious BOO rats; [3]): significantly decreased
BC, effect versus basal (conscious BOO rats; Cpd (IA) 3 mg/kg i.v., 0-90 min entire period): did not significantly modify
BC, effect versus basal (conscious BOO rats; Cpd (IA) 3 mg/kg i.v., 60-90 min interval period): neither vehicle nor Cpd (IA) had a significant effect
% of variation from basal values of BC (conscious BOO rats; Cpd (IA) 30 mg/kg i.g., 0-90 min entire period, vehicle 11±6): −13±6%
AM (mmHg or % variation), effect versus vehicle (conscious BOO rats; i.g., 0-90 min entire period): not significantly modified
AM, effect versus basal (conscious BOO rats; i.g., 0-90 min entire period): did not significantly modify
BC expressed in % variation from basal, effect versus vehicle (conscious BOO rats; i.g., 0-90 min entire period): significantly decreased
BC expressed in mL, effect versus vehicle (conscious BOO rats; i.g., 0-90 min entire period): no significant difference
NVC amplitude expressed in % variation from basal, effect versus vehicle (conscious BOO rats; i.g., 0-90 min entire period): remained unaffected
NVC amplitude expressed in mmHg, effect versus vehicle (conscious BOO rats; i.g., 0-90 min entire period): not significantly modified
NVC amplitude, effect versus basal (conscious BOO rats; i.g., 0-90 min entire period): did not modify
NVC frequency (NVC/min or % variation), effect versus vehicle (conscious BOO rats; i.g., 0-90 min entire period): not significantly modified
NVC frequency, effect versus basal (conscious BOO rats; i.g., 0-90 min entire period): did not affect
ThP expressed in % variation from basal, effect versus vehicle (conscious BOO rats; i.g., 0-90 min entire period): significantly decreased
ThP expressed in mmHg, effect versus vehicle (conscious BOO rats; i.g., 0-90 min entire period): not significantly modified
ThP, effect versus basal (conscious BOO rats; i.g., 0-90 min entire period): did not modify
AM (mmHg or % variation), effect versus vehicle (conscious BOO rats; [4]): no effect
AM, effect versus basal (conscious BOO rats; [4]): did not significantly modify
BC expressed in % variation from basal, effect versus vehicle (conscious BOO rats; [4]): significantly decreased
BC expressed in mL, effect versus vehicle (conscious BOO rats; [4]): no significant difference
NVC amplitude expressed in % variation from basal, effect versus vehicle (conscious BOO rats; [4]): not significantly modified
NVC amplitude expressed in mmHg, effect versus vehicle (conscious BOO rats; [4]): not significantly modified
NVC amplitude, effect versus basal (conscious BOO rats; [4]): without any effect
NVC frequency (NVC/min or % variation), effect versus vehicle (conscious BOO rats; [4]): unaffected
NVC frequency, effect versus basal (conscious BOO rats; [4]): did not affect
ThP expressed in % variation from basal, effect versus vehicle (conscious BOO rats; [4]): significantly decreased
ThP expressed in mmHg, effect versus vehicle (conscious BOO rats; [4]): not significantly modified
ThP, effect versus basal (conscious BOO rats; [4]): significantly decreased
BC, effect versus basal (conscious BOO rats; i.g., Cpd (IA) 30 mg/kg, mirabegron 10 mg/kg, 0-90 min entire period): significantly decreased
BC, effect versus basal (conscious BOO rats; i.g., Cpd (IA) 30 mg/kg, mirabegron 10 mg/kg, 60-90 min interval period): significantly decreased
all other cystometric parameters (than BC and ThP), effect versus vehicle (conscious BOO rats; i.v., conclusions): no effect
Urine Conc., mean ([1]; single oral dose 0.2 mg, 16 to 24 h): BCL
Urine Conc., mean ([1]; single oral dose 0.2 mg, 24 to 32 h): BCL
Urine Conc., mean ([1]; single oral dose 0.2 mg, 32 to 40 h): BCL
Urine Conc., mean ([1]; single oral dose 0.2 mg, 40 to 48 h): BCL
Urine Conc., mean ([1]; single oral dose 0.6 mg, 16 to 24 h): BCL
Urine Conc., mean ([1]; single oral dose 0.6 mg, 24 to 32 h): BCL
Urine Conc., mean ([1]; single oral dose 0.6 mg, 32 to 40 h): BCL
Urine Conc., mean ([1]; single oral dose 0.6 mg, 40 to 48 h): BCL
Urine Conc., mean ([1]; single oral dose 2 mg, 16 to 24 h): 409 nM
Urine Conc., mean ([1]; single oral dose 2 mg, 24 to 32 h): BCL
Urine Conc., mean ([1]; single oral dose 2 mg, 32 to 40 h): BCL
Urine Conc., mean ([1]; single oral dose 2 mg, 40 to 48 h): BCL
Urine Conc., mean ([1]; single oral dose 10 mg, 16 to 24 h): 1004 nM
Urine Conc., mean ([1]; single oral dose 10 mg, 40 to 48 h): BCL
